Results taken from PubChem BioAssay AID2060898 (Molecular Pharmacology Branch, DTP, NCI, 2025).

System: 616215-338-R-J1-PDC complex spheroid viability
Experiment: Anticancer human tumor 616215-338-R-J1-PDC patient-derived colon adenocarcinoma cell line growth inhibition [RAS]
Conditions: for IC50: curve of first compound; for viability, T/C: stronger effect = lower value
Outline: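 Agents were tested in combination matrices in half-log decrements from a top concentration at or near clinical Cmax (10 microM if undetermined). Targets were multi-cell spheroids of tumour lines plus HUVEC and MSC stromal cells.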

[1] = second compound 0.000949 µM, first compound 0.00316 µM
[2] = second compound 0.000949 µM, first compound 0.01 µM
[3] = second compound 0.000949 µM, first compound 0.0316 µM
[4] = second compound 0.000949 µM, first compound 0.1 µM
[5] = second compound 0.000949 µM, first compound 0.316 µM
[6] = second compound 0.000949 µM, first compound 1 µM
[7] = second compound 0.003 µM, first compound 0.00316 µM
[8] = second compound 0.003 µM, first compound 0.01 µM
[9] = second compound 0.003 µM, first compound 0.0316 µM
[10] = second compound 0.003 µM, first compound 0.1 µM
[11] = second compound 0.003 µM, first compound 0.316 µM
[12] = second compound 0.003 µM, first compound 1 µM
[13] = second compound 0.00949 µM, first compound 0.00316 µM
[14] = second compound 0.00949 µM, first compound 0.01 µM
[15] = second compound 0.00949 µM, first compound 0.0316 µM
[16] = second compound 0.00949 µM, first compound 0.1 µM
[17] = second compound 0.00949 µM, first compound 0.316 µM
[18] = second compound 0.00949 µM, first compound 1 µM
[19] = second compound 0.03 µM, first compound 0.00316 µM
[20] = second compound 0.03 µM, first compound 0.01 µM
[21] = second compound 0.03 µM, first compound 0.0316 µM
[22] = second compound 0.03 µM, first compound 0.1 µM
[23] = second compound 0.03 µM, first compound 0.316 µM
[24] = second compound 0.03 µM, first compound 1 µM
[25] = second compound 0.0949 µM, first compound 0.00316 µM
[26] = second compound 0.0949 µM, first compound 0.01 µM
[27] = second compound 0.0949 µM, first compound 0.0316 µM
[28] = second compound 0.0949 µM, first compound 0.1 µM
[29] = second compound 0.0949 µM, first compound 0.316 µM
[30] = second compound 0.0949 µM, first compound 1 µM
[31] = second compound 0.3 µM, first compound 0.00316 µM
[32] = second compound 0.3 µM, first compound 0.01 µM
[33] = second compound 0.3 µM, first compound 0.0316 µM
[34] = second compound 0.3 µM, first compound 0.1 µM
[35] = second compound 0.3 µM, first compound 0.316 µM
[36] = second compound 0.3 µM, first compound 1 µM
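Note: spheroids exposed to agents for seven days before viability readout.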
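Throughout, for viability, T/C: 100% = DMSO vehicle control viability.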

C=CC(=O)Nc1cc(Nc2nccc(-c3cn(C)c4ccccc34)n2)c(OC)cc1N(C)CCN(C)C + CCn1c(-c2cc(N3CCN(C)CC3)cnc2C(C)OC)c2c3cc(ccc31)-c1csc(n1)CC(NC(=O)C1CC1C)C(=O)N1CCCC(N1)C(=O)OCC(C)(C)C2 was tested, and the IC50 (second compound 0.000949 µM) was > 1000 nM, the IC50 (second compound 0.003 µM) was 522 nM and the IC50 (second compound 0.00949 µM) was 216 nM. The IC50 (second compound 0.03 µM) was 3.16 nM, the IC50 (second compound 0.0949 µM) was < 3.16 nM and the IC50 (second compound 0.3 µM) was < 3.16 nM. It also gave a viability, T/C [1] of 106%, a viability, T/C [2] of 102% and a viability, T/C [3] of 119%. For the same molecule, the viability, T/C [4] was 101%, the viability, T/C [5] was 84.1% and the viability, T/C [6] was 56.3%. For the same molecule, the viability, T/C [7] was 113%, the viability, T/C [8] was 109% and the viability, T/C [9] was 104%. For the same molecule, the viability, T/C [10] was 81.9%, the viability, T/C [11] was 54.7% and the viability, T/C [12] was 43.7%. The viability, T/C [13] was 77.3%, the viability, T/C [14] was 80.4% and the viability, T/C [15] was 72%. The viability, T/C [16] was 63%, the viability, T/C [17] was 43.6% and the viability, T/C [18] was 28.7%. It also gave a viability, T/C [19] of 44.4%, a viability, T/C [20] of 48.8% and a viability, T/C [21] of 48.4%. It also gave a viability, T/C [22] of 54.9%, a viability, T/C [23] of 34.5% and a viability, T/C [24] of 32.4%. It also gave a viability, T/C [25] of 30.8%, a viability, T/C [26] of 34.1% and a viability, T/C [27] of 36.6%. It also gave a viability, T/C [28] of 36.9%, a viability, T/C [29] of 34.7% and a viability, T/C [30] of 33%. For the same molecule, the viability, T/C [31] was 39.2%, the viability, T/C [32] was 33.1% and the viability, T/C [33] was 39.1%. For the same molecule, the viability, T/C [34] was 37.3%, the viability, T/C [35] was 33.5% and the viability, T/C [36] was 32.5%.

For O=C(c1ccc(F)c(F)c1Nc1ccc(I)cc1F)N1CC(O)([C@@H]2CCCCN2)C1 + CCn1c(-c2cc(N3CCN(C)CC3)cnc2C(C)OC)c2c3cc(ccc31)-c1csc(n1)CC(NC(=O)C1CC1C)C(=O)N1CCCC(N1)C(=O)OCC(C)(C)C2, the IC50 (second compound 0.000949 µM) was 41.4 nM, the IC50 (second compound 0.003 µM) was 22.6 nM and the IC50 (second compound 0.00949 µM) was 6.67 nM. For the same molecule, the IC50 (second compound 0.03 µM) was < 3.16 nM, the IC50 (second compound 0.0949 µM) was < 3.16 nM and the IC50 (second compound 0.3 µM) was < 3.16 nM. It also gave a viability, T/C [1] of 115%, a viability, T/C [2] of 87.5% and a viability, T/C [3] of 58.6%. The viability, T/C [4] was 27%, the viability, T/C [5] was 12.1% and the viability, T/C [6] was 3.52%. For the same molecule, the viability, T/C [7] was 101%, the viability, T/C [8] was 73.3% and the viability, T/C [9] was 39%. It also gave a viability, T/C [10] of 20.6%, a viability, T/C [11] of 5.3% and a viability, T/C [12] of 2.66%. It also gave a viability, T/C [13] of 66.8%, a viability, T/C [14] of 39.9% and a viability, T/C [15] of 24.2%. The viability, T/C [16] was 15.7%, the viability, T/C [17] was 2.25% and the viability, T/C [18] was 2.11%. The viability, T/C [19] was 32.5%, the viability, T/C [20] was 30.3% and the viability, T/C [21] was 21.2%. The viability, T/C [22] was 3.47%, the viability, T/C [23] was 1.98% and the viability, T/C [24] was 1.79%. It also gave a viability, T/C [25] of 30.1%, a viability, T/C [26] of 19.2% and a viability, T/C [27] of 4.14%. For the same molecule, the viability, T/C [28] was 1.63%, the viability, T/C [29] was 1.65% and the viability, T/C [30] was 1.53%. The viability, T/C [31] was 25.9%, the viability, T/C [32] was 18.8% and the viability, T/C [33] was 2.37%. It also gave a viability, T/C [34] of 1.55%, a viability, T/C [35] of 1.12% and a viability, T/C [36] of 1.16%.
